Assay results: article PMC7005905, “Identification and characterization of a bacterial core methionine synthase” (Scientific Reports, 2020)

Columns and labels:
[1] = molecular target: T1, tr-MetEEco (Escherichia coli, UniProt P25665); experiment: HPLC and MS of products; type: biochemical; conditions: 2 mM D,L-homocysteine, 150 µM 5-methyl-THF-Glu3, pH 7.2, 100 µM MgSO4, 100 µM ZnSO4, 10 mM DTT, 37 °C
T1 construct: gene metE; tandem-repeat MetE, full length, 753 residues, 85 kDa, recombinant in E. coli DH10B (pBAD30_MetE), anion exchange; source strain of the gene not in main text (K-12 likely)
T1 sequence (P25665 2-753): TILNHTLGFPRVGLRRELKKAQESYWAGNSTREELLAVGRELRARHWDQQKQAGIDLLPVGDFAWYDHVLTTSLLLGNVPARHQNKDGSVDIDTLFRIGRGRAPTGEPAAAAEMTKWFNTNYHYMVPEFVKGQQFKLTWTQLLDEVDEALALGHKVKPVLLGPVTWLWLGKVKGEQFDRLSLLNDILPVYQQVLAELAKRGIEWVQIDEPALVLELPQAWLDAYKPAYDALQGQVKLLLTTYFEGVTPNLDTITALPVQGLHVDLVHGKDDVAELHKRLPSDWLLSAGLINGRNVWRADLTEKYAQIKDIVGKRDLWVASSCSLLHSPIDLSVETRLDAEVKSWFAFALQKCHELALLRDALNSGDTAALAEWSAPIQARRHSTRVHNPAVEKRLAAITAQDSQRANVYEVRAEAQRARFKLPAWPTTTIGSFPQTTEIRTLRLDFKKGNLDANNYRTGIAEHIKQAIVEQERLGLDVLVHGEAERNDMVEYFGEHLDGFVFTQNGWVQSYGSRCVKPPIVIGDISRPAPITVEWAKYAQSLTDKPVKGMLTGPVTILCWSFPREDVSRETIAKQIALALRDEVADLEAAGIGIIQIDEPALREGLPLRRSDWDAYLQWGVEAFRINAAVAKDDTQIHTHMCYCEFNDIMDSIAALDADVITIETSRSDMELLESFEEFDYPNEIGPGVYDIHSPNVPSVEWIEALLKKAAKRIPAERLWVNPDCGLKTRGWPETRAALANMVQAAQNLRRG

[2] = molecular target: T2, core-MetECBDB (Dehalococcoides mccartyi, UniProt A0A916P3S8); conditions: 2 mM D,L-homocysteine, 50 mM Tris/HCl pH 6.5, 150 mM NaCl, 10% glycerol, anoxic, 0.1 µM enzyme; Hill fit
T2 construct: gene cbdbA481

[3] = substrate: NC(CCS)C(=O)O; experiment: purified protein; conditions: 0.5 mM methylcob(III)alamin, 50 mM Tris/HCl pH 6.5, 150 mM NaCl, 10% glycerol, anoxic, 0.1 µM enzyme, racemate, enzyme taken as L-specific, Hill fit

NC(CCS)C(=O)O (racemic) [D,L-homocysteine]
HPLC and MS of products [1]: in the presence of tr-MetEEco, methionine was formed

C.C/C1=C2/N[C@H]([C@H](CC(N)=O)[C@@]2(C)CCC(=O)NC[C@@H](C)OP(=O)(O)O[C@H]2[C@@H](O)[C@@H](n3cnc4cc(C)c(C)cc43)O[C@@H]2CO)[C@]2(C)N=C(/C(C)=C3N=C(/C=C4N=C1[C@@H](CCC(N)=O)C\4(C)C)[C@@H](CCC(N)=O)[C@]\3(C)CC(N)=O)[C@@H](CCC(N)=O)[C@]2(C)CC(N)=O.[Co] [MeCbl(III), methylcob(III)alamin]
Km [2]: 236 ± 3 µM

B1: core-MetECBDB (Dehalococcoides mccartyi CBDB1) (protein)
chain: MTKTDFYFLPTMIGSMPHTDPKAAVDIITHYLRDIPVWPQLPRRSYLEGMSAQFSQGLPGVNINQDKMWIEPNSGFEGELESLYQAYLDNDFNKFPIGVEYAAGLYELASRSNLSPKLVKGHITGPLTYCMSIKDPSGKDILYDEVLSDAATKLLKLKASWQEHFLKKICRNTIIFVDEPAMSAYGSAYLPLSREQVTGMFEEVFSGISGLKGVHCCGNTDWSILMDTSVDIINFDTYSYADSLAIYTDALQAFIKRGGAVAWGIVPTDEKALKEETAASLKDRLEAAMSHFDSKGLPFAELARHSLITPACGLGLKSLDAAERAPELLAELSALLRRKHGTV
Km [3]: 98 ± 0 µM | kcat [3]: ~60 s⁻¹
